How the values were obtained:
5-lipoxygenase (5-LO) = assay: Synthesis of LTB4 and its metabolites in calcium ionophore-stimulated neutrophils (HPLC); type: cell-based, human; conditions: for IC50: Neutrophil, human neutrophils, calcium ionophore, read-out: IC50 for the production of LTB4
Experimental: The pathway for LTB4 synthesis involves initial release of AA from phospholipids by a Ca-dependent PLA2. The free AA is then oxygenated at by 5-LO (requiring enzyme activation by FLAP) to generate an epoxide intermediate (LTA4). LTA4 is then converted to LTB4 by LTA4 hydrolase. LTB4 is metabolised (and deactivated) by a cytochrome P-(CYP) 450 […] to produce 20-hydroxy and 20-carboxy metabolites. These metabolites are also measured in the HPLC assay.
Neutrophils were isolated from citrated human venous blood to >90% purity by centrifugation through Ficoll, dextran sedimentation and lysis of erythrocytes (Boyum 1986). Cells were washed in HEPES buffered Hanks solution (HBHS) and then suspended at 4.5 million cells/mL in HBHS containing 0.1% BSA (HBHS+BSA).
Experiments had been carried out previously to optimise the stimulation of neutrophils by calcium ionophore. At 37° C., 900 μL of cell suspension (4 million cells) was incubated with 3′,7-dihydroxyisoflav-3-ene (or vehicle) in 10 μL DMSO for 5 min before addition of 100 μL of 25 ng/μL calcium ionophore (free acid form, Sigma) with 0.5% DMSO in HBHS containing 0.1% bovine serum albumin (HBHS+BSA). The cells were incubated for 10 min then pelleted by centrifugation at 1200× g at 4° C. for 5 min, and the cell free supernatant used to quantitate the levels of LTB4 and its metabolites.
To each 900 μL aliquot of the supernatant, 25 μL of 2.5 ng/μL prostaglandin B2 (PGB2) in ethanol was added as internal standard. The solution was acidified to […] with 2M formic acid and the mixture extracted with 2 mL ethyl acetate and vigorous vortexing. The organic layer was collected and dried under nitrogen in a glass vial before being reconstituted in 50 μL of the reconstitution solution (water:methanol:acetonitrile at 2:1:1).
Analysis was carried out using a HPLC system with a 125-4 LiChrospher®100 RP-18 (5 μm) column (Agilent Technologies) and a gradient system adapted from a published method (Mita et al. 1988) to separate LTB4, its oxidation products 20-hydroxy LTB4 (20-OH-LTB4) and 20-carboxy LTB4 (20-COOH-LTB4), as well as PGB2. At 1 ml/min flow rate, a combination of three different mobile phase solutions were used. UV absorbance was monitored at 270 nm, and LTB4 and its metabolites were quantitated by comparison of peak areas with that of internal standard and a standard curve prepared earlier.

red blood cells (RBC) = assay: Peroxyl radical (AAPH)-induced red blood cell lysis; type: cell-based; conditions: test compounds at 1 μM; AAPH 150 mM; vehicle 40.0
Experimental: Freshly collected heparinised venous blood (10 ml, on ice) was aliquotted into 1.8 ml sterile eppendorf tubes and centrifuged for 10 minutes at 2600 rpm at 4° C. Plasma and buffy coat layers were removed (approximately 900 μl) and packed red blood cells (RBC) were then washed by the addition of 900 μl of sterile, ice cold PBS. This washing procedure was repeated twice. Packed RBC were resuspended by the addition of 900 μl of ice-cold, sterile PBS (and termed RBC stock). RBC stocks were stored at 4° C. for a maximum of three days. All working suspensions of RBC were prepared fresh daily by diluting 200 μl of RBC stock into 10 ml of ice-cold, sterile PBS and 50 μl added to each well.
Stocks of AAPH were freshly prepared for individual experiments as follows. […] Turbidity of RBC suspensions were monitored using a Tecan microplate reader at 690 nm (37° C.) with gentle vortexing. Assays were performed in quadruplicate and readings were taken every 5 minutes over 5 hours. RBC lysis curves were constructed by plotting absorbance (mean of 4 readings) against time. Time to half-lysis was calculated by taking the highest absorbance reading (no lysis) and the lowest absorbance reading (maximum lysis). The sum of these two readings divided by two gave the absorbance at half-lysis. Simple regression analysis was used to calculate the time at which half-lysis absorbance occurred.

IFN-γ and IL-6 = assay: Splenocyte cytokine production (ELISA); type: cell-based, mouse; conditions: 10 μM, 3 day incubation, culture supernatant
Experimental: Male Skh-1:HR1 (hairless) mice, approximately six weeks old were killed by cervical dislocation. Single cell suspensions were made from the spleen and erythrocytes were lysed in buffer (0.14M NH4Cl, 17 mM Tris, pH 7.2). The remaining splenocytes were cultured in RPMI-1640 (Gibco) supplemented with 10% (v:v) FBS, 200 mM L-glutamine, penicillin/streptomycin and […] 2-mercaptoethanol. Splenocytes were added to quadruplicate wells containing either concanavalin A (ConA, Sigma-Aldrich—0.4 μg/well), LPS (Sigma-Aldrich—1 μg/well) or no mitogen, as well 10 μM of test compound in DMSO. Samples were analysed after a 3 day incubation at 37° C. in 5% CO2 in air. Methylthiazoletetrazolium (MTT) is bioreduced by viable cells into a coloured formazan product that is soluble in DMSO. Thus the quantity of formazan product is directly proportional to the number of living cells in culture, and can be measured using a spectrophotometer at 570 nm. MTT was added to each well, incubated for a further 4 hrs and then colour developed with 0.04N HCl in isopropanol. Culture supernatants were stored after collection at −80° C. and both T and B cells analysed by ELISA (BD Biosciences) for IFN-γ (a Th-1 cytokine) and for T cells alone, IL-6 (a Th-2 cytokine).

Row | SMILES | 20-COOH-LTB4, % of maximum release (5-lipoxygenase (5-LO); 0.1 μM) [%] | 20-OH-LTB4, % of maximum release (5-lipoxygenase (5-LO); 0.1 μM) [%] | LTB4, % of maximum release (5-lipoxygenase (5-LO); 0.1 μM) [%] | 20-COOH-LTB4, % of maximum release (5-lipoxygenase (5-LO); 1 μM) [%] | 20-OH-LTB4, % of maximum release (5-lipoxygenase (5-LO); 1 μM) [%] | LTB4, % of maximum release (5-lipoxygenase (5-LO); 1 μM) [%] | 20-COOH-LTB4, % of maximum release (5-lipoxygenase (5-LO); 10 μM) [%] | 20-OH-LTB4, % of maximum release (5-lipoxygenase (5-LO); 10 μM) [%] | LTB4, % of maximum release (5-lipoxygenase (5-LO); 10 μM) [%] | IC50 (5-lipoxygenase (5-LO)) [µM] | Time taken to reach half-lysis, time (red blood cells (RBC)) [min] | Effect on cytokine synthesis (INF-γ, IL-6) (IFN-γ and IL-6)
1 | CN(C)Cc1cc2c(cc1O)OCC(c1ccc(O)cc1)=C2 [Compound (1)] | 82.0 | 95.2 | 94.3 | 99.6 | 77.7 | 78.1 | 0.0 | 0.0 | 0.0 | 4.3 | 154.6 | concomitant reduction on the synthesis of INF-γ and IL-6
2 | O=C(O)C1CCCN1Cc1cc2c(cc1O)OCC(c1ccc(O)cc1)=C2 (stereo not drawn) [Compound (3)] | 114.9 | 82.8 | 93.6 | 105.7 | 99.0 | 97.0 | 145.2 | 6.1 | 0.0 | 5.4 | 88.6 | did decrease the cytokines produced by T cells in particular

Reference: patent publication US20120003270A1, “6-SUBSTITUTED ISOFLAVONOID COMPOUNDS AND USES THEREOF” (priority 2008, published 2012)
